Like-named read-outs stand apart in the source and are kept apart here. Each block holds one molecule with its values, some of them ahead of it.
Assays:
[1] = molecular target: gastrin releasing peptide receptor (GRP-R) (human) (UniProt P30550); assay: saturation binding of carrier-added radioligand on PC-3 cells, 4 C
[2] = molecular target: gastrin releasing peptide receptor (GRP-R) (human) (UniProt P30550); assay: competition with 125I-universal ligand, receptor autoradiography on human cancer tissue
[3] = molecular target: human neuromedin-B preferring receptor (NMB-R) (human) (UniProt P28336); assay: as above
[4] = molecular target: gastrin releasing peptide receptor (GRP-R) (human) (UniProt P30550); assay: competition with 67Ga-AMBA on PC-3 cells, 4 C
[5] = molecular target: gastrin releasing peptide receptor (GRP-R) (human) (UniProt P30550); assay: competition with 177Lu-AMBA on PC-3 cells, 4 C
[6] = test system: ZR-75-1 human breast cancer cells; assay: Longterm (2-12 days) effect of 4-hydroxytamoxifen on GRP receptor binding in ZR-75-1 cells; type: cell-based
Experimental: The ZR-75-1 cells were seeded at 15K per well onto two 96-well scintiplates on the same day as 2 days study.

[7] = test system: ZR-75-1 human breast cancer cells; assay: Effect of 4-hydroxytamoxifen on GRP receptor binding and glucose uptake in ZR-75-1 cells; type: cell-based
Experimental: Method: ZR-75-1 breast cancer cell line (human ductal carcinoma with estrogen receptor) was obtained from the American Type Culture Collection (ATCC).
ZR-75-1 cells were plated on Day 0 (40 k/well 96-well PE Scintiplate). […] To determine the cell numbers and the proliferation, 100 uL of 10% CCK—F solution in DPBS (Molecular technologies) was added to the same plate, incubated for 30 min at 37° C. and the relative fluorescence (RFU) measured at 535 nm. Based on the cell numbers and the ^177Lu-binding, the Bmax (fmoles bound/million cells) was calculated.
The cell numbers were determined with CCK—F treatment as described above.

[8] = test system: T47D human breast cancer cells; assay: Effect of drug treatment on GRP receptor binding (177Lu-AMBA) in T47D cells; type: cell-based; settings: T-47D; relative to untreated control; drug 0.1-1.0 μM (4-OH Tamoxifen 0.001-0.1 μM)
From the text: T-47D breast cancer cells (human metastatic mammary gland ductal adenocarcinoma isolated from pleural effusion, ER+, PR+) were obtained from the American Type Culture Collection.

[9] = test system: PC-3 prostate cancer cells; assay: Effect of drug treatment on GRP receptor binding (177Lu-AMBA) in PC-3 cells; type: cell-based, human; settings: PC-3; drug 0.1-1.0 μM (4-OH Tamoxifen 0.001-0.1 μM)
Experimental: (§1) RPMI 1640 supplemented with 20 mM HEPES, 0.1% BSA (w/v), 0.5 mM PMSF (AEBSF), bacitracin (50 mg/500 ml), pH 7.4.
(§2) Incubations were stopped by the addition of 200 μL of ice-cold binding buffer. Plates were washed three more times with binding buffer, 140 μL of scintillation fluid was added to each well, the plates were sealed and analyzed on a Microβ plate reader (Microbeta Trilux, Perkin-Elmer).
PC-3 (human prostate adenocarcinoma, bone metastasis, AR-, ER) were obtained from the American Type Culture Collection. The growth medium for PC-3 cells is RPMI 1640 (10-041-CM, Mediatech, Inc), supplemented with 10% heat inactivated FBS (Hyclone, SH30070.03) and PSF-1× (as in Example LXVI). The binding buffer, lapatinib solutions, treatment method and cell binding assay is the same as in Example LXVI.

[10] = test system: BT-474 human breast cancer cells; assay: Effect of drug treatment on GRP receptor binding (177Lu-AMBA) in BT-474 cells; type: cell-based; settings: BT-474; relative to untreated control; drug 0.1-1.0 μM (4-OH Tamoxifen 0.001-0.1 μM)
Experimental: BT-474 breast cancer cells (human primary invasive ductal carcinoma; ER+, PR+, amplified HER2/neu+) were obtained from the American Type Culture Collection. The growth medium for BT-474 cells is Hybri-care Medium (Cat No: 46X, ATCC) supplemented with 10% heat inactivated FBS (Hyclone, SH30070.03), 0.2% NaHCO3, and antibiotic/antimycotic “PSF-1×” (GibcoBRL, 15240-062) for a final concentration of penicillin-streptomycin (1×, 100 units/mL), and fungizone (0.25 μg/mL). […] Cells for binding experiments were plated on Day 0 at 5.6×10^4 cells/cm^2 in 96-well white/clear bottom microtiter plates (Falcon Optilux-I), or 96 well black/clear collagen I cellware plates (Beckton Dickinson Biocoat).
as §1, §2
Treatment: BT-474 cells were plated on Day 0 and treated on Days 1 and 2 (DT1, DT2).

PC3 cells = assay: Internalization and efflux assay in PC3 cells; type: cell-based, human; settings: 125I-BBN or Lu-177 complexes; for Internalisation (40 minutes): 40 min at 37° C.; for Efflux (2 h): 2 h at 37° C. after 40 min loading
Experimental: These studies were conducted in a 96-well plate. […] Incubations were stopped by the addition of 200 μl of ice-cold binding buffer. Plates were washed twice with binding buffer. To remove surface-bound radioligand, the cells were incubated with 0.2M acetic acid (in saline), pH 2.8 for 2 min. Plates were centrifuged and the acid wash media were collected to determine the amount of radioactivity which was not internalized. The cells were collected to determine the amount of internalized ^125I-BBN, and all samples were analyzed in the gamma counter. Data for the internalization assay was normalized by comparing counts obtained at the various time points with the counts obtained at the final time point (T=40 min).
For the efflux studies, after loading the PC3 cells with ^125I-BBN or radiolabeled compounds of the invention for 40 min at 37° C., the unbound material was filtered, and the % of internalization was determined as above. The cells were then resuspended in binding buffer at 37° C. for up to 3 h.

NMB-R = molecular target: T1, NMB-R (Rattus norvegicus, UniProt P24053); assay: Competition with 125I-NMB for NMB-R in C6 cells (linker specificity); type: binding, rodent; settings: for receptor subtype preference (GRP-R vs NMB-R): from IC50 with 125I-NMB (C6) and 125I-BBN (PC3), cut off 10x the IC50 of [Tyr4]-BBN;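 on all read-outs here: test cells: rodent glioblastoma C6 line carrying NMB-R, human prostate cancer PC3 line carrying GRP-R, affinity fitted by one-site competition nonlinear regression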
T1 construct: C6, an NMB-R expressing rodent glioblastoma cell line; host or cells: C6 glioblastoma cells, intact adherent cells
T1 sequence (P24053 1-390): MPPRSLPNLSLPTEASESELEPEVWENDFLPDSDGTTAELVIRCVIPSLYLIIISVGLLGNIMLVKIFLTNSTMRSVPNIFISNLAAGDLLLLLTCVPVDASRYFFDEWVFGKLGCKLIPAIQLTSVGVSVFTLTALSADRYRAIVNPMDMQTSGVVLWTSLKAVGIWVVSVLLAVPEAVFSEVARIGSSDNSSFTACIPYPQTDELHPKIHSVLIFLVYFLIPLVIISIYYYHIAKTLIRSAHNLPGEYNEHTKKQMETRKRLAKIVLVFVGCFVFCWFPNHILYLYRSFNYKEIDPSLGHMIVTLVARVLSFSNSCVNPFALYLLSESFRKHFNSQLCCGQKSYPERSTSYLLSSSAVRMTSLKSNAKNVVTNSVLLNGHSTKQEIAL
Experimental: Two cell lines, C6, an NMB-R expressing rodent glioblastoma cell line and PC3, a GRP-R expressing human prostate cancer cell line, were used in this assay. The affinity of various unlabeled compounds for each receptor subtype (NMB-R and GRP-R) was determined indirectly by measuring its ability to compete with the binding of ^125I-NMB or ^125I-BBN to its corresponding receptors in C6 and PC3 cells.
Cells for the assays were plated at a concentration of 9.6×10^4/well in 48 well poly-lysine coated plates (Beckton Dickinson Biocoat). PC3 were obtained from ATCC(CRL-1435) and cultured in RPMI 1640 (ATCC) supplemented with 2 mM L-glutamine, 1.5 g/L Sodium bicarbonate, 10 mM HEPES and 10% FBS. […] PC3 cells for the assays were plated at a concentration of 2.0×10^4 cells/well in 96-well white/clear bottom plates (Falcon Optilux-I). Plates were used for the assays on day 2 of the post-plating.
RPMI 1640 (ATCC) containing 25 mM HEPES, 0.2% BSA fraction V, 1.0 mM AEBSF (CAS # 3087-99-7) and 0.1% Bacitracin (CAS # 1405-87-4), pH 7.4. Custom made ^125I-[Tyr^0]NMB, >2.0 Ci/μmole (Amersham Life Science) [^125I-NMB] and commercially available ^125I-[Tyr^4]BBN, >2.0 Ci/μmole (Perkin Elmer Life Science) [^125I-BBN] were used as radioligands.
Using a 48-well plate assay system (for C6 study) competition experiments were performed using ^125I-NMB. […] Selection of compounds for the assay was based on linker subtype.
The binding parameters obtained from the studies were analyzed using a one-site competition non-linear regression analysis with GraphPad Prism. The relative affinity of various compounds for NMB-R in C6 cells were compared with those obtained using commercially available [Tyr^4]-BBN and [Tyr^0]-NMB. To distinguish the GRP-R preferring compounds from NMB-R plus GRP-R preferring compounds, IC50 values obtained for each compound were compared with those obtained from [Tyr^4-BBN with ^125I-NMB on C6 cells.

[11] = test system: PC3 tumor-bearing nude mice; type: in vivo, mouse
Experimental: In all studies, mice were administered 100 μL of ^177Lu-labeled test compound at 200 μCi/kg, i.v., with a residence time of 1 and 24 h per group (n=3-4). Tissues were analyzed in an LKB 1282 CompuGamma counter with appropriate standards.

[12] = test system: PC3 tumor-bearing nude mouse model; assay: Radiotherapy efficacy studies in the PC3 tumor-bearing nude mouse model; type: in vivo; settings: 177Lu labeled; for survival, Short Term Efficacy Study: 30 mCi/kg, up to 30 days, vs untreated and DO3A-monoamide-Aoc-QWAVGHLM-NH2 control; for survival, Long Term Efficacy Study: same dose, up to 120 days, vs controls
Experimental: Radiotherapy studies were performed using the PC3 tumor-bearing nude mouse model. […] (n=12 for each treatment group for up to 30 days, and n=36 for the pooled untreated control group for up to 31 days). […] The subjects were housed in a barrier environment for the duration of the study. Body weight and tumor size (by caliper measurement) were collected on each subject 3 times per week for the duration of the study. Criteria for early termination included: death; loss of total body weight (TBW) equal to or greater than 20%; tumor size equal to or greater than 2 cm^3.

[13] = test system: human PC-3 nude mouse model; type: in vivo
Experimental: For biodistribution studies, the radiolabeled compounds were prepared as described above except that a 1:1 molar ratio of ligand to Lutetium was used to guarantee complete chelation of all starting ligand. The HPLC peak containing the resulting ^177Lu complex was collected in 1 mL of 9:1 Bacteriostatic saline/ASCOR L500® solution containing 0.1% HSA, and the organic solvents were removed using a speed-vacuum device. The remaining solution was further diluted to the required radioconcentration using Bacteriostatic saline/ASCOR L500® Ascorbic Acid Injection USP mixed in a 9 to 1 [v/v]) ratio. The radiochemical purity of all samples was […].
10-50 μCi of the HPLC purified compounds were administered to each mouse by i.v. tail vein injection, n=4 per group. […] Radioactivity was assayed in a gamma counter. The data was expressed as percentage of the total administered radioactivity (% ID) for the urine combined with the bladder, as well as for the blood pool; and percentage of the total administered radioactivity per gram (% ID/g) for all the other tested organs.

GRP-R = molecular target: T2, GRP-R (Homo sapiens, UniProt P30550); assay: Competition studies of modified BBN analogs with 125I-BBN for GRP-R in PC3 cells (Example LXI); type: binding
T2 construct: host or cells: PC3 (PC-3) human prostate cancer cells, intact adherent cells
Experimental: PC3 cell lines were obtained from ATCC(CRL-1435) and cultured in RPMI 1640 (ATCC) supplemented with 2 mM L-glutamine, 1.5 g/L Sodium bicarbonate, 10 mM HEPES and 10% FBS. […] PC3 cells for the assays were plated at a concentration of 2.0×10^4 cells/well in a 96-well white/clear bottom plates (Falcon Optilux-I). Plates were used for the assays on day 2 of the post-plating.
^125I-BBN (Cat # NEX258) was obtained from PerkinElmer Life Sciences.
All compounds tested were dissolved in binding buffer and appropriate dilutions were also done in binding buffer. PC3 cells for assay were seeded at a concentration of 2.0×10^4/well either in 96-well black/clear collagen I cellware plates (Beckton Dickinson Biocoat). Plates were used for binding studies on day 2 post-plating. The plates were checked for confluency (>90% confluent) prior to assay. […] The studies were conducted with an assay volume of 75 μL per well. Triplicate wells were used for each data point. After the addition of the appropriate solutions, plates were incubated for 1 hour at 4° C. Incubation was ended by the addition of 200 μL of ice-cold incubation buffer. Plates were washed 5 times and blotted dry. Radioactivity was detected using either a LKB CompuGamma counter or a microplate scintillation counter.

[14] = ZR-75-1, long-term treatment, 100 nM
[15] = 177Lu-labeled, 1 and 24 h, compared with control DO3A-monoamide-Aoc-QWAVGHLM-NH2
[16] = 177Lu-labeled, compared with control DO3A-monoamide-Aoc-QWAVGHLM-NH2

T2 sequence (P30550 whole entry): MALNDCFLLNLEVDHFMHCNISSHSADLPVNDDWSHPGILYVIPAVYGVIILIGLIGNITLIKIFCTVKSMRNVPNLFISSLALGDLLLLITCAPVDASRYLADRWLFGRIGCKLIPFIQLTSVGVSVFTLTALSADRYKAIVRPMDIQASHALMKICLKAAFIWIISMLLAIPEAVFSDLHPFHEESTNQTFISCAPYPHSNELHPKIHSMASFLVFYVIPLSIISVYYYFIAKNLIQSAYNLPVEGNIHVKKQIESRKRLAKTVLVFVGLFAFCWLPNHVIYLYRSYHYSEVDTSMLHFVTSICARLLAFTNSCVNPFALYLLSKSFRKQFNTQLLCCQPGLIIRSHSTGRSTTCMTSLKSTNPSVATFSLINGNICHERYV
Chain of gastrin releasing peptide receptor (GRP-R) (human) (P30550 whole entry): as above
Chain of human neuromedin-B preferring receptor (NMB-R) (human) (P28336 whole entry): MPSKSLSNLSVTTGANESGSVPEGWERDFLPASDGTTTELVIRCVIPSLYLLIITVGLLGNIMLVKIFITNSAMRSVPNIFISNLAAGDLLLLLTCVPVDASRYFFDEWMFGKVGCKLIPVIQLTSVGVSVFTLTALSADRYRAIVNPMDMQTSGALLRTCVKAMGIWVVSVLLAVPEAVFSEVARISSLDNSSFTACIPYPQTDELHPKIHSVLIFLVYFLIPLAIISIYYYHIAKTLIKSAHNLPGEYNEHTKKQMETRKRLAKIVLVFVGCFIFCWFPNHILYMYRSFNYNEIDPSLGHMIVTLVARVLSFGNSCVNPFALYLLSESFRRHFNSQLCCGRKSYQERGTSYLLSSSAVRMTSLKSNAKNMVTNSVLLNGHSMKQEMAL

- Binding capacity (Bmax) (fmoles/1 × 10^6 cells) [1]: 402
- Kd [1]: 0.46 nM
- Receptors/cell (receptors/cell) [1]: 242000
Molecule: 67Ga-AMBA (peptide)

- IC50 [2]: 0.8 nM
- IC50 [3]: 0.9 nM
- EC50 [4]: 1.28 nM
- EC50 [5]: 1.47 nM
Molecule: 175Lu-L70 (peptide)

Molecule: CC/C(=C(\c1ccc(O)cc1)c1ccc(OCCN(C)C)cc1)c1ccccc1 [4-OH Tamoxifen, 4-hydroxytamoxifen]
- inhibition of proliferation ([6]; ZR-75-1, 100 nM, by 12 day): 28%
- 2-NBDG uptake [6, 14]: smaller changes
- 177Lu-AMBA uptake [6, 14]: significant reduction
- decrease in glycolysis (2-NBDG uptake) ([7]; ZR-75-1): ~20%
- change in cell proliferation ([7]; ZR-75-1, 0-0.1 μM): little change
- decrease in 177Lu-AMBA binding (GRP receptor specific signal per cell) [8]: up to 35%
- change in GRP receptor specific signal per cell (177Lu-AMBA binding) [9]: no change
- decrease in 177Lu-AMBA binding (GRP receptor specific signal per cell) [10]: up to 73%

Molecule: CSCC[C@H](NC(=O)[C@H](CC(C)C)NC(=O)[C@H](Cc1c[nH]cn1)NC(=O)CNC(=O)[C@@H](NC(=O)[C@H](C)NC(=O)[C@H](Cc1c[nH]c2ccccc12)NC(=O)[C@H](CCC(N)=O)NC(=O)CC[C@@H](C)[C@H]1CC[C@H]2[C@@H]3CC[C@@H]4C[C@@H](NC(=O)CNC(=O)CN5CCN(CC(=O)O)CCN(CC(=O)O)CCN(CC(=O)O)CC5)CC[C@]4(C)[C@H]3C[C@H](O)[C@]12C)C(C)C)C(N)=O [Compound L63, N-[(3β,5β,12α)-3-[[[[[4,7,10-Tris(carboxymethyl)-1,4,7,10-tetraazacyclododec-1-yl]acetyl]amino]acetyl]amino]-12-hydroxy-24-oxocholan-24-yl]-L-glutaminyl-L-tryptophyl-L-alanyl-L-valyl-glycyl-L-histidyl-L-leucyl-L-methioninamide]
- Internalisation (40 minutes) (PC3 cells): 64%
- Efflux (2 h) (PC3 cells): 0%
- receptor subtype preference (GRP-R vs NMB-R) (NMB-R): dual affinity for both GRP-R and NMB-R
- uptake in the tumor [11, 15]: high tumor uptake
- distribution of radioactivity in the blood, liver and kidneys [11, 16]: increased blood and liver values at early times
- uptake in the mouse pancreas [11, 16]: much higher
- survival, Short Term Efficacy Study [12]: increased survival

Molecule: CSCC[C@H](NC(=O)[C@H](CC(C)C)NC(=O)[C@H](Cc1c[nH]cn1)NC(=O)CNC(=O)[C@@H](NC(=O)[C@H](C)NC(=O)[C@H](Cc1c[nH]c2ccccc12)NC(=O)[C@H](CCC(N)=O)NC(=O)CC[C@@H](C)[C@H]1CC[C@H]2[C@@H]3[C@H](O)C[C@@H]4C[C@@H](NC(=O)CNC(=O)CN5CCN(CC(=O)O)CCN(CC(=O)O)CCN(CC(=O)O)CC5)CC[C@]4(C)[C@H]3C[C@H](O)[C@]12C)C(C)C)C(N)=O [Compound L64, N-[(3β,5β,7α,12α)-3-[[[[[4,7,10-Tris(carboxymethyl)-1,4,7,10-tetraazacyclododec-1-yl]acetyl]amino]acetyl]amino]-7,12-dihydroxy-24-oxocholan-24-yl]-L-glutaminyl-L-tryptophyl-L-alanyl-L-valyl-glycyl-L-histidyl-L-leucyl-L-methioninamide]
- Internalisation (40 minutes) (PC3 cells): 69%
- Efflux (2 h) (PC3 cells): 20%
- receptor subtype preference (GRP-R vs NMB-R) (NMB-R): dual affinity for both GRP-R and NMB-R
- uptake in the tumor [11, 15]: much higher
- uptake in the mouse pancreas [11, 16]: much higher
- survival, Short Term Efficacy Study [12]: increased survival
- survival, Long Term Efficacy Study [12]: significantly increased survival

Molecule: CC1(N(CC(=O)O)CC(=O)O)CN(CC(=O)O)[C@@H]2CCCC[C@H]2N(CC(=O)O)C1 [XX100]
- Blood % ID (7 d column, *72 h timepoint) ([13]; 177Lu complex, i.v., PC-3 nude mouse, 72 h): 0.00 ± 0.00 % ID
- clearance and localization of radioactivity ([13]; Lu-177 complexes, human PC-3 nude mouse model, 1 h, 1 and 7 days): rapidly cleared from the body with little residual localization in any organs or tissue

Molecule: GNLWATGHFM-NH2
- competition at the GRP-R (GRP-R): unable to compete
- competition at NMB-R (NMB-R): effective NMB competitors
- receptor preference in words (GRP-R / GRP-R and NMB-R) (NMB-R; wrapped cell: 'No selective preference' or 'preference for NMB-R'): preference for NMB-R

- EC50 [4]: 1 nM
- EC50 [5]: 1.15 nM
Molecule: Ga-AMBA (non-radioactive) (peptide)

Molecule: N-[4-[[[[[4,7,10-Tris(carboxymethyl)-1,4,7,10-tetraazacyclododec-1-yl]acetyl]amino]acetyl]amino]benzoyl]-L-glutaminyl-L-tryptophyl-L-alanyl-L-valyl-glycyl-L-histidyl-L-leucyl-L-methioninamide [Compound L70]
- Internalisation (40 minutes) (PC3 cells): 70%
- Efflux (2 h) (PC3 cells): 12%
- receptor subtype preference (GRP-R vs NMB-R) (NMB-R): dual affinity
- uptake in the tumor ([11]; mouse, in vivo): much higher
- survival, Short Term Efficacy Study [12]: increased survival
- survival, Long Term Efficacy Study [12]: significantly increased survival

Molecule: N-[(3β,5β,12α)-3-[[[4,7,10-Tris(carboxymethyl)-1,4,7,10-tetraazacyclododec-1-yl]acetyl]amino]-glycyl-4-aminobenzoyl-L-glutaminyl-L-tryptophyl-L-alanyl-glycyl-L-histidyl-L-phenylalanyl-L-leucinamide [Compound L224]
- competition at the GRP-R (GRP-R): complete loss of binding

Molecule: N-[(3β,5β,12α)-3-[[[4,7,10-Tris(carboxymethyl)-1,4,7,10-tetraazacyclododec-1-yl]acetyl]amino]-glycyl-4-aminobenzoyl-L-leucyl-L-tryptophyl-L-alanyl-L-valinyl-glycyl-L-serinyl-L-phenylalanyl-L-methioninamide [Compound L225]
- competition at the GRP-R (GRP-R): reduces competition at the GRP-R

- IC50 [2]: 0.7 nM
- IC50 [3]: 0.8 nM
Molecule: [DTyr6, βAla11, Phe13, Nle14]-BBN(6-14) (peptide)

Molecule: yGNLWATGHFM-NH2
- competition at the GRP-R (GRP-R): unable to compete
- competition at NMB-R (NMB-R): effective NMB competitors
